From patent US9802992B2, “Cell into which protein, which can serve as polymerization nucleus of protein polymer, or polymer thereof is introduced, and method for production of the cell” (TOKYO ME[…] OF MEDICAL SCIENCE, priority 2005, dated 2017)

How the values were obtained:
α-synuclein = molecular target: T1, α-synuclein (Homo sapiens, UniProt P37840); test: Inhibition of fibrillization of α-synuclein in vitro (thioflavin S fluorescence); format: biochemical; details: 2 mg/mL α-synuclein, shaking at 37° C., 20 μM Gossypetin, compared with sample without Gossypetin (FIG. 7)
T1 construct: made in house; host or cells: E. coli BL21(DE3), pRK172 vector
Description: Gossypetin, a polyphenol compound may be taken as an example of a candidate substance. Gossypetin is a flavonol contained in Gossypium herbaceum LINNE and is polyphenol compound used as a food additive. For example, it is possible to investigate whether Gossypetin inhibits fibrillization of α-synuclein in vitro by incubating α-synuclein in the presence of Gossypetin, adding thioflavin S to the solution after the reaction and measuring the fluorescence intensity. Thioflavin S is a test reagent which emits fluorescence upon binding to a protein which can serve as a polymerization nucleus of a protein polymer, or a protein polymer thereof, which are rich in β-sheet structure and which therefore can be used to determine the presence or absence of a protein which can serve as a polymerization nucleus of a protein polymer, or a protein polymer thereof. In contrast, since α-synuclein fibrils are rich in β-sheet structure, if Gossypetin inhibits fibrillization of α-synuclein, the fluorescence intensity should be lower than samples to which Gossypetin has not been added.
[…] Fluorescence intensity was measured using a Hitachi F4000 spectrophotometer (excitation wavelength 440 nm, fluorescence wavelength 520 nm).
2 mg/mL of α-synuclein was incubated with shaking at 37° C. in the presence or absence of 20 μM of Gossypetin. Fibril formation was measured by thioflavin S fluorescence. […]

[1] = tested on: SH-SY5Y cells into which α-synuclein plasmid and fibrils are introduced (WT+FαS cells); test: Cell death assay (LDH leakage) in the cellular model of α-synuclein proteinopathy; format: cell-based; details: Gossypetin (20 μM), incubated three days; without polyphenol approximately 50% (FIG. 8)
Description: A cell death assay was performed using cells into which pcDNA3-α-syn vector and α-synuclein fibrils are introduced, and which had been incubated for three days either in the presence or the absence of a fibrillization inhibitor. Gossypetin (20 μM) which is a type of polyphenol was used as the fibrillization inhibitor.
After incubation for three days, a portion of the cell media in the culture was harvested. The cells from the remaining media were prepared as a Tris-soluble fraction in the same manner as the Tris-soluble fraction described above. A cell death assay was performed on the harvested media and the Tris-soluble fraction using a CYTOTOX 96™ Non-Radioactive Cytotoxicity Assay Kit (Promega). The method was performed in accordance with the explanatory material accompanying the kit.
A cell death assay was performed on the following three types of cells: untreated cells (none), FαS cells into which only α-synuclein fibril was introduced, and WT+FαS cells into which fibril and α-synuclein plasmid DNA were introduced. After culturing the cells for three days, cell death was evaluated by lactate dehydrogenase (LDH) leakage assay. This assay is based on determining how much LDH originally inside the cell has leaked outside the cell as a result of cell death.
Gossypetin was added to SH-SY5Y cells into which α-synuclein plasmid and fibrils are introduced, and incubated for three days. […]

O=c1c(O)c(-c2ccc(O)c(O)c2)oc2c(O)c(O)cc(O)c12 [Gossypetin]
thioflavin S fluorescence intensity (fibril formation of α-synuclein) (α-synuclein): conspicuous decrease | rate of cell death [1]: conspicuous inhibition
